Series [1] can be described thus: Solubility in water and pH buffered solutions. In kind it is physicochemical. The method, then:
The solubility of crystalline Form A of Compound 1 was measured in water and a range of pH buffered solutions representing the physiological pH range. The physical form of any undissolved (or precipitated) Compound 1 was not assessed by XRPD after solubility determination. The Form A crystalline form of Compound 1 is disclosed in WO2008/047082.

Series [2] can be described thus: Solubility in real and simulated gastrointestinal media. The series is classed as physicochemical. Particulars: thermodynamic from solid; for solubility thermodynamic at 24 hr: read-out: Equilibrium solubility, 24 hr. The method, then: The solubility of Compound 1 was also measured in real and simulated gastrointestinal media (Table 2).
A short description of series [3]: pKa. In kind it is physicochemical. Particulars: phthalazinone moiety. From the text: 4-[3-(4-cyclopropanecarbonyl-piperazine-1-carbonyl)-4-fluoro-benzyl]-2H-phthalazin-1-one (Compound 1) is a weakly acidic compound with a pKa of about 12.5 (phthalazinone moiety). It is essentially neutral across the physiological pH range.
The subject of series [4] is P-gp. Nature of the series: Permeability across Caco-2 monolayers. In kind it is in vitro ADME. The note with it: human, Caco-2, 10 μM. Background: Caco-2 monolayers are a common model of the intestinal barrier.
The nature of series [5]: Permeability across Caco-2 monolayers. In kind it is in vitro ADME. Particulars: human, Caco-2; for efflux ratio / Papp A→B / Papp B→A: marker compound, concentration not given.
The test system of series [6] is Caco-2 monolayers. The experiment in a line: Permeability across Caco-2 monolayers. The series is classed as in vitro ADME.
A short description of series [7]: In vitro dissolution of Compound 1 preparations (USP Apparatus I, TRIS buffer pH 7.2). The series is classed as physicochemical. The method, then:
Dissolution was performed according to the general procedure of the United States Pharmacopeia Apparatus I (Basket). An amount of material containing approximately 100 mg of Compound 1 was weighed accurately then transferred to a dissolution vessel containing 500 mL of TRIS buffer (0.05M tris(hydroxymethyl)aminomethane solution adjusted to pH 7.2 with hydrochloric acid) maintained at 37° C. and stirred at 100 rpm. […] Compound 1 concentration in the filtrate was determined by ultraviolet spectroscopy at a wavelength of 278 nm.

Values after ≈ are worked out from the molar mass of the structure shown. Read-outs that look alike come from different tables or passages of the source.

A word on the solubility: it is the dissolved amount per volume that the medium holds. `O=C(c1cc(Cc2n[nH]c(=O)c3ccccc23)ccc1F)N1CCN(C(=O)C2CC2)CC1` [Compound 1 (Form A), 4-[3-(4-cyclopropanecarbonyl-piperazine-1-carbonyl)-4-fluoro-benzyl]-2H-phthalazin-1-one]: the solubility at 1 hr in series [1] (aqueous buffer, thermodynamic from solid, 0.1M NaOH, pH 12.5) was 650 µg/mL (≈ 1500 µM); in series [1] (aqueous buffer, thermodynamic from solid, pH 3 Citrate Buffer, pH 2.9), 124 µg/mL (≈ 285 µM); in series [1] (aqueous buffer, thermodynamic from solid, pH 6.8 Phosphate Buffer, pH 6.9), 111 µg/mL (≈ 255 µM); in series [1] (aqueous buffer, thermodynamic from solid, pH 9 Buffer, pH 8.9), 116 µg/mL (≈ 267 µM); in series [1] (simulated gastric fluid, thermodynamic from solid, 0.1M HCl, pH 1.2), 128 µg/mL (≈ 295 µM); in series [1] (thermodynamic from solid, Water, pH 5.6) it was 124 µg/mL (≈ 285 µM). Moreover, the solubility at 24 hr is 599 µg/mL (≈ 1380 µM) in series [1] (aqueous buffer, thermodynamic from solid, 0.1M NaOH, 24 hr, pH 12.4); 112 µg/mL (≈ 258 µM) in series [1] (aqueous buffer, thermodynamic from solid, pH 3 Citrate Buffer, 24 hr, pH 2.9); 96 µg/mL (≈ 221 µM) in series [1] (aqueous buffer, thermodynamic from solid, pH 6.8 Phosphate Buffer, 24 hr, pH 6.9); 114 µg/mL (≈ 262 µM) in series [1] (simulated gastric fluid, thermodynamic from solid, 0.1M HCl, 24 hr, pH 1.2); 109 µg/mL (≈ 251 µM) in series [1] (thermodynamic from solid, Water, 24 hr, pH 6.0). This compound also came in with a solubility in series [1] (pH 9 Buffer, 24 hr, pH 8.8) of 102 µg/mL (≈ 235 µM). Further, the solubility thermodynamic at 24 hr in series [2] (Fasted State Simulated Intestinal Fluid (FaSSIF), fassif) is 130 µg/mL (≈ 299 µM); in series [2] (Fed State Simulated Intestinal Fluid (FeSSIF), fessif), 200 µg/mL (≈ 460 µM); in series [2] (Simulated Gastric Fluid (SGF), simulated gastric fluid) it was 120 µg/mL (≈ 276 µM); in series [2] (human, Human Gastric Fluid (HGF), plasma or biological fluid) it was 150 µg/mL (≈ 345 µM); in series [2] (human, Human Intestinal Fluid (HIF), plasma or biological fluid), 170 µg/mL (≈ 391 µM).
A word on the pKa: it is the negative logarithm of the acid dissociation constant. A high value points to a weaker acid or stronger base. Usually efflux ratio stands for the permeability from basolateral to apical divided by that in the opposite direction, in the common usage. The Papp A→B is how fast a substance crosses the layer from the apical side. A lower Papp A→B goes with poor permeation. In general, Papp B→A refers to the apparent permeability from the basolateral to the apical side of a cell layer. As usually defined, the Papp is a coefficient for how fast a substance crosses the barrier. The low end stands for slow passage, the high end for fast passage. On to `O=C(c1cc(Cc2n[nH]c(=O)c3ccccc23)ccc1F)N1CCN(C(=O)C2CC2)CC1` [Compound 1, 4-[3-(4-cyclopropanecarbonyl-piperazine-1-carbonyl)-4-fluoro-benzyl]-2H-phthalazin-1-one], for which, in series [1] (aqueous buffer, thermodynamic from solid, range of aqueous buffers (pH 1-9), read-out: aqueous equilibrium solubility), the solubility thermodynamic is around 100 µg/mL (≈ 230 µM). Also, the pKa in series [3] is around 12.5. The solubility in series [2] (fed state simulated intestinal fluid, fessif, read-out: highest solubility) is 200 µg/mL (≈ 460 µM). Besides, in series [2] (human, real and simulated gastrointestinal media, fassgf or other biorelevant), the solubility at 24 hr is 120 to 200 µg/mL (≈ 276 to 460 µM). Besides, the efflux ratio at 10 μM in series [4] was determined as 6.5. In series [4] (n = 3, ±S.D.), this compound gave a Papp A→B at 10 μM of 3.67 ± 0.34 ×10⁻⁶ cm/s and a Papp B→A at 10 μM of 23.7 ± 2.84 ×10⁻⁶ cm/s. Also, the Papp at 10 μM in series [5] was determined as 3.67 ×10⁻⁶ cm/s. In addition, in series [5] (260 μM), the efflux ratio at 260 μM came to 2.3. In addition, in series [5] (260 μM, n = 3, ±S.D.), the Papp A→B at 260 μM came out at 7.75 ± 0.88 ×10⁻⁶ cm/s and the Papp B→A at 260 μM was found to be 17.8 ± 1.19 ×10⁻⁶ cm/s. For the same compound, the efflux ratio at 700 μM in series [5] (700 μM) was found to be 1.8. In series [5] (700 μM, n = 3, ±S.D.), the Papp A→B at 700 μM came out at 8.4 ± 0.41 ×10⁻⁶ cm/s and the basolateral-to-apical permeability (Papp B→A) at 700 μM is 15.1 ± 1.42 ×10⁻⁶ cm/s. Also, in series [6] (compared to the high permeability marker propranolol), the “permeability” value is “moderately permeable”. Moreover, the “human Peff” value in series [6] (equated from Caco-2 Papp) turned out to be 140 ×10⁻⁶ cm/s. Further, the “efflux by P-gp” value in series [6] (low concentrations (10 μM), inhibited by Elacridar) is “propensity for efflux by P-gp”.
For `C[C@H]1O[C@@H](O[C@H]2[C@@H](O)C[C@H](O[C@H]3[C@@H](O)C[C@H](O[C@H]4CC[C@@]5(C)[C@H](CC[C@@H]6[C@@H]5C[C@@H](O)[C@]5(C)[C@@H](C7=CC(=O)OC7)CC[C@]65O)C4)O[C@@H]3C)O[C@@H]2C)C[C@H](O)[C@@H]1O` [Digoxin, digoxin, reference compound], in series [5], the efflux ratio was 9.1. In addition, in series [5] (n = 3, ±S.D.), the Papp A→B turned out to be 1.34 ± 0.03 ×10⁻⁶ cm/s and the Papp B→A was found to be 12.2 ± 1.37 ×10⁻⁶ cm/s.
For the compound `O=C(c1cc(Cc2n[nH]c(=O)c3ccccc23)ccc1F)N1CCN(C(=O)C2CC2)CC1` [Drug only], the “Dissolution (% Release)” value in series [7] (15 min) amounted to 15%; in series [7] (30 min), 28%; in series [7] (45 min) it was 43%; in series [7] (60 min), 51%; in series [7] (75 min), 58%; in series [7] (90 min), 62%. In addition, the “Dissolution (% Release)” value in series [7] (105 min) stood at 68%; in series [7] (120 min), 71%.
For `CC(C)NCC(O)COc1cccc2ccccc12` (stereo not drawn) [Propranolol, propranolol, reference compound], in series [5], the efflux ratio amounted to 1.1. In series [5] (n = 3, ±S.D.), this compound registered a Papp A→B of 20 ± 2.57 ×10⁻⁶ cm/s and a Papp B→A of 21.5 ± 0.33 ×10⁻⁶ cm/s.

These data come from patent US12048695B2, “Immediate release pharmaceutical formulation of 4-[3-(4-cyclopropanecarbonyl-piperazine-1-carbonyl)-4-fluoro-benzyl]-2H-phthalazin-1-one” (KUDOS PHARMACEUTICALS LIMITED, priority 2008, dated 2024).
